This is an account of results in patent publication US20230212517A1, “METHODS FOR GENERATING HEMATOPOIETIC STEM CELLS” (The Brigham and Women's Hospital, Inc., priority 2018, published 2023).

Entries after “also recorded” stand apart in the source; their conditions may differ.

One test has as its system E11.5 AGM cells. The experiment in a line: Hematopoietic colony formation unit (CFU) and FACS assays on E11.5 AGM cells. Format: cell-based, mouse. Particulars: for effect on cyclic strain-induced endothelial-to-HSC transition / hematopoietic progenitor formation: in the presence of cyclic strain (stretch). As for the experimental part: Pulsating blood vessels like conditions were stimulated in vitro using FLEXCELL FX-4000 cell stretching bioreactor machine. To analyze roles of pharmacological targets in regulating the endothelial-to-HSC transition, mouse embryo-derived AGM or whole mouse embryo were exposed ex vivo with biomechanical stretching, chemicals, or drugs. Next, hematopoietic colony formation assays were performed by incubating mouse AGM-derived cells in StemCell M3434 media for seven days. Serial transplantation of AGM-derived HSCs in lethally irradiated SJL mice were performed. The stem cell frequency upon biomechanical stretching was analyzed using a limiting dilution assay. To characterize properties of AGM-HSC-derived blood cells in primary transplants, percentage chimerism and reconstitution was measured using FACS, globin transcripts were analyzed using quantitative reverse transcriptase-PCR, myeloperoxidase amount was measured using PICOKINE ELISA kit, TCR-β rearrangement was analyzed using PCR for TCR-β locus, pre-immune IG detection was analyzed using Thermo-Fisher Mouse Ig Isotyping kit, and delayed-type hypersensitivity was analyzed by injecting sheep RBC (Rockland Immunochemicals) in the footpad of pre-sensitized mice.
E11.5 AGM were harvested from C57BL6/J Cd45.2 mouse embryos, and a single cell suspension of a three-embryo equivalent of cells was seeded on each well of a BioFlex six-well culture plate (FlexCell). We cultured cells overnight with the application of cyclic strain (Flexcell® FX4000™ Tension System) and/or treatment with chemical modulators (25-50 μM Yoda1, 1 μM Nanaomycin, 100 μM GdCl3, 1 uM GsMTx4, 5-20 μM 4αPDD, 10 uM GSK205). Next, harvested cells were used to perform transplant, fluorescence-activated cell sorting (FACS) analysis, and colony-forming unit (CFU) assays.
E11.5 mouse embryos were harvested from the uterus of the time-mated pregnant female, into sterile glass vials containing FBS, 1 mM glucose, 1% Penicillin-Streptomycin, and/or the selected chemical modulator (25-50 μM Yoda1, 1 μM Nanaomycin, 5-20 μM 4αPDD, or 10 uM GSK205). We placed glass vials in the ex vivo incubator (BTC Engineering, Cambridge, UK) consisting of a roller apparatus (rotating ˜30 rpm), constant gas supply (21% O2, 5% CO2, balance N2) and constant temperature at 37° C. After 24 hours, AGM were harvested to analyze the formation of hematopoietic cells by FACS and CFU assays.
For CFU assays, cells from AGM explant or ex vivo were plated in METHOCULT GF M3434 media (StemCell Technologies). Seven days after seeding, we analyzed their capacity to make granulocyte, erythroid, macrophage, megakaryocyte (GEMM), granulocyte macrophage (GM), granulocyte (G), macrophage (M), and erythroid (E) colonies.
AGM cells from explants and ex vivo were stained with Sca1-Pacific-Blue (E13-161.7, Biolegend) and Flk1-APC-Cy7 (Avas 12α1, BD). Blood from transplanted mice was stained with the following antibody cocktail: Cd45.2-Pacific-Blue (104, Biolegend), Cd45.1-FITC (A20, Biolegend), Cd3-PE (145-2C11, Biolegend), Cd8-PE (53-6.7, Biolegend), Mac1-APC (M1/70, Biolegend), Gr1-APC (108412, Biolegend), Cd19-APC-CY7 (6D5, Biolegend), B220-APC-CY7 (RA3-6B2, Biolegend).
In general terms: A flow cytometer gives signals particle by particle.

Another test deals with zebrafish embryos. The test can be described thus: HSPC marker expression in chemically treated embryos (whole mount in situ hybridization). Format: in vivo. As for the experimental part:
(§1) Zebrafish embryos were treated with the following chemical modulators in E3 fish media: 100 uM L-NAME (Fisher Scientific), 50 uM Digitoxigenin (Sigma), 25-50 uM Yoda1 (Cayman Chemical), 1 uM Nanaomycin (Nana; Fisher Scientific), 100 uM Gadolinium chloride (GdCl3; Sigma), 5-10 uM 4α-phorbol 12, 13-didecanaote (4Apdd; Sigma), or GSK205 (10 uM).
Whole mount in situ hybridizations was performed as previously described.

Test [1] concerns cd41:eGFP+ HSCs emerging from flk1:mCherry+ endothelial cells. The experiment in a line: Time-lapse confocal imaging of cd41:eGFP+ HSCs emerging from flk1:mCherry+ endothelial cells in transgenic embryos. Format: in vivo, zebrafish. On the procedure: Mice were purchased Cd45.2 (C57BL6/J) and Cd45.1 (SJL) from The Jackson Laboratory and zebrafish morpholinos from GeneTools. Microangiography was performed by injecting fluorescent-labeled dextran dye in the atrium of zebrafish heart and its passage was recorded using live imaging. Immunostaining of zebrafish heart and mouse AGM were analyzed using an inverted fluorescent microscope. Cardiac tamponade, heart rate, and pulse frequency were analyzed in zebrafish embryos using bright field imaging or time-lapse confocal microscopy. The movement of red blood cells in blood vessels was analyzed as well as the endothelial-to-HSC transition in zebrafish transgenic embryos using time-lapse confocal imaging.
as §1
cd41: eGFP were crossed with flk1:mCherry zebrafish and flk1:mCherry with lcr:eGFP zebrafish and injected morpholino in their transgenic embryos. Transgenic embryos were mounted in low-melting-point agarose and a spinning-disk confocal microscope was used to perform time-lapse confocal imaging of cd41:eGFP^+ HSCs emerging from flk1^+ endothelium from 30 to 42 hpf. The relative movement of lcr:eGFP^+ red blood cells was analyzed in the context of flk1:mCherry^+ endothelium. We performed image analysis using IMARIS (Bitplane) software.

Turning to GsMtX4, the “effect on cyclic strain-induced endothelial-to-HSC transition / hematopoietic progenitor formation” value with E11.5 AGM cells is listed as “attenuates the inductive impact of cyclic strain on the endothelial-to-HSC transition”.
As for `[Cl][Gd]([Cl])[Cl]` [GdCl3, Gadolinium chloride], in the test on E11.5 AGM cells, the “effect on cyclic strain-induced endothelial-to-HSC transition / hematopoietic progenitor formation” value is “attenuated”. Also, the “HSPC marker expression / HSPC formation” value with zebrafish embryos (control embryos) is on record as “attenuated HSPC expression in zebrafish embryos to the level of sih-MO embryos”.
For `COC(=O)[C@@H](N)CCCNC(=N)N[N+](=O)[O-]` [L-NAME], the “HSPC marker expression / HSPC formation” value in the test with zebrafish embryos (cdh5-MO embryos) is on record as “produce HSCs; also recorded: does not impact HSPC formation”; in the test with zebrafish embryos (control embryos) it was “attenuates HSPC formation”.
For the molecule `CC1OC(CC(=O)O)CC2=C1C(=O)c1c(O)cccc1C2=O` (stereo not drawn) [Nanaomycin], the “phenotype of hematopoietic cells after treatment” value in the test on E11.5 AGM cells (E11.5 AGM cells) is “reverts hematopoietic cells into phenotypic endothelial cells”. For the same molecule, the “effect on Piezo1 activation (Yoda1)-induced endothelial-to-HSC transition” value with E11.5 AGM cells (in the presence of Yoda1) is “attenuates the endothelial-to-HSC transition”. The “effect on cyclic strain-induced endothelial-to-HSC transition / hematopoietic progenitor formation” value in the test on E11.5 AGM cells was “attenuates the endothelial-to-HSC transition”. The “effect on Piezo1 activation (Yoda1)-mediated increase in HSC formation” value in test [1] (embryos concurrently treated with or without Yoda1, also whole mount in situ hybridization) was “attenuated the Piezo1 activation-mediated increase in HSC formation”. Further, in test [1] (transgenic embryos 26-42 hpf), the “specificity for Dnmt3b over Dnmt3a” value is “specificity of Nanaomycin for Dnmt3b over Dnmt3a”. Moreover, the “HSPC marker expression / HSPC formation” value in the test with zebrafish embryos (cdh5-MO embryos) and in the test on zebrafish embryos (control embryos) was “attenuated HSPC marker expression” throughout.
